One data set deals with blood glucose. Nature of the data set: Effect of EHCA on blood glucose in normal mice (starch gavage). Type of data set: in vivo, Kunming mice. The procedure:
Fifty healthy adult male Kunming mice were purchased from Zhuhai Bestest Biotechnology Co., Ltd. The experiments were approved by the Animal Ethics Committee of Guangdong Ocean University with the approval number of GDOU-LAE-2021-002, approved on 6 April 2021. Before the experiment, all animals were watered and fed freely for 7 days. […] The groups were mixed with soluble starch (250 mg/kg) and gavaged synchronously for 3 d. […] Where G0 is the pre-dose fasting blood glucose value, mmol/L; […] Area under the curve (AUC) was calculated applying the following formula (Equation 4): (4) […]/4.

Another data set deals with SOD in liver. In words: Hepatic superoxide dismutase (SOD) activity. The format is in vivo, Kunming mice. Conditions: PC, metformin 150 mg/kg. The procedure:
(§1) Fifty healthy adult male Kunming mice were purchased from Zhuhai Bestest Biotechnology Co., Ltd. The experiments were approved by the Animal Ethics Committee of Guangdong Ocean University with the approval number of GDOU-LAE-2021-002, approved on 6 April 2021. Before the experiment, all animals were watered and fed freely for 7 days. […] The groups were mixed with soluble starch (250 mg/kg) and gavaged synchronously for 3 d.

For the next data set, the system named is serum insulin. Nature of the data set: Effect of EHCA on serum insulin (INS). The format is in vivo, Kunming mice. The following applies: PC, metformin 150 mg/kg, mean ± SD, n = 10 mice. The procedure:
as §1, with “3 d. […] Effects of EHCA on mice at the end of the test, blood was taken from the eyeballs of mice, which were executed in the decapitated position, and the organs were collected for subsequent experiments. […] (5) […] Where WISI is the insulin sensitivity index; WFPG is fasting blood glucose, mmol/[…] is fasting insulin content (μU/mL); and WFBCI is the insulin secretion index.” for “3 d.”

For data set [1] the following is noted: pH 7.4.
For a further data set, the target named is α-glucosidase (Saccharomyces cerevisiae, UniProt P53341). Conditions: cited from earlier work. From the text: Marine proteins have a novel amino acid composition, which is one of the important sources for the production of bioactive peptides ([11], [12]). There have been a number of studies on natural hypoglycemic active peptides from marine sources such as Trachurus trachurus, Euphausia superba, Chlorella vulgaris and Crassostrea gigas ([11], [13-15]). […] The molecular weight of protein hydrolysates is a determinant of their biological activity, and peptide fractions with low molecular weights are highly biologically active ([33]).

Data set [2] deals with glucose metabolizing enzyme. The following applies: extracted from Spirulina; cited from earlier work. From the text:
Marine proteins have a novel amino acid composition, which is one of the important sources for the production of bioactive peptides ([11], [12]). There have been a number of studies on natural hypoglycemic active peptides from marine sources such as Trachurus trachurus, Euphausia superba, Chlorella vulgaris and Crassostrea gigas ([11], [13–15]).

“And” between values parts separate entries of the source, which are not always exact repeats. Identical values can stand only once. Marks after values point to notes of the source that are not given here. Where no end group is shown, it is not given here.

Sequence of α-glucosidase (P53341 whole entry): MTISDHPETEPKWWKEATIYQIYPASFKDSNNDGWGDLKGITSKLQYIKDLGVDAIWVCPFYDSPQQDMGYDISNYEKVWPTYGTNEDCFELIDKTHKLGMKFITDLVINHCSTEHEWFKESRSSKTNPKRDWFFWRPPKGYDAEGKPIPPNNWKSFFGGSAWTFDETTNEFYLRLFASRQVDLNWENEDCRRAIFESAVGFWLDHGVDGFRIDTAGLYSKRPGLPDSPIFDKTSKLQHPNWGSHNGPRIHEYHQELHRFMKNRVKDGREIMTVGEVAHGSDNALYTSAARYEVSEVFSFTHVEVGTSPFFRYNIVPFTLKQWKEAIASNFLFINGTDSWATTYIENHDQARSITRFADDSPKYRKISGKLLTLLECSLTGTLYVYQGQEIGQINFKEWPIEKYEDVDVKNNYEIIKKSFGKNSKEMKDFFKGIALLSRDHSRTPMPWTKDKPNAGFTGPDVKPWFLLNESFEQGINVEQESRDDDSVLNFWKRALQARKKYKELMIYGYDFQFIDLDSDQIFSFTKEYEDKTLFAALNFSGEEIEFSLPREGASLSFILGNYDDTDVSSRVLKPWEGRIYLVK

As for `CN(C)C(=N)N=C(N)N` [metformin], the “blood glucose values after gavage vs NC (in words)” value in the data set on blood glucose (0.5 h and 2 h of gavage, compared with the NC group, p < 0.05) is “significantly reduce the blood glucose values”. For the same compound, the “AUC of blood glucose (in words)” value with blood glucose (EHCA 500-2,000 mg/kg or metformin 150 mg/kg, relative to NC group, p < 0.05, n = 10) was “markedly reduced the AUC values”. In the data set with blood glucose (PC, metformin 150 mg/kg, gavage 3 d, fasting at the end of dosing, mean ± SD, n = 10 mice), the “Blood glucose value, G1” value was 3.21 ± 0.20^a mmol/L. For the same compound, the “Blood glucose value, 0.5 h” value with blood glucose (PC, metformin 150 mg/kg, gavage 3 d with soluble starch, 0.5 h, mean ± SD, n = 10 mice, listed as PC) was found to be 8.45 mmol/L. The “Blood glucose value, 2 h” value in the data set on blood glucose (PC, metformin 150 mg/kg, gavage 3 d with soluble starch, 2 h, mean ± SD, n = 10 mice, listed as PC) is 6.87 ± 1.14 mmol/L and 6.87 mmol/L. For the same compound, in the data set on blood glucose (PC, metformin 150 mg/kg, pre-dose fasting, mean ± SD, n = 10 mice), the “Blood glucose value, G0” value was 4.94 ± 1.71^a mmol/L. In the data set with blood glucose (fasted mice, EHCA 500-2,000 mg/kg or metformin 150 mg/kg, 3 d, compared with the NC group, n = 10), the “hypoglycemic rate (in words)” value is reported as “significantly increased the hypoglycemic rate”. In addition, the “SOD activity in liver” value with SOD in liver (WST-8 method, mean ± SD, n = 10 mice, NC 242.00 ± 66.43) is 363.55 ± 18.09 U/mL. Also, the “increase of SOD activity in liver” value with SOD in liver (compared to the NC group) was found to be 50.23%. Besides, the Fasting serum insulin in the data set on serum insulin (ELISA) is 29.82 ± 5.50^a mIU/L. In the data set with serum insulin, the Insulin secretion index is reported as 8.50 ± 1.12^a and the Insulin sensitivity index was 2.13 ± 0.13^a.

Consider KLNSTTEKLEE, for which, in data set [1], the solubility entry is given as “good solubility”.

With LPLLR [Walnut-derived peptide LPLLR], on α-glucosidase (2 mM, walnut-derived), the “inhibition of α-glucosidase” value is recorded as 50.12%.

Regarding “LRSELAAWSR [peptide from Spirulina platensis]”, in the data set with α-glucosidase (from Spirulina platensis), the IC50 – broadly, the concentration that gives 50% inhibition – is 134 µM and the “IC50, inhibitory activity against α-glucosidase” value is 134.2 µg/mL.

For “TDADHKF [TDADHKF, Thr-Asp-Ala-Asp-His-Lys-Phe]”, the solubility result in data set [1] is on record as “good solubility”.

Consider “USW: anti-diabetic peptide USW extracted from Spirulina (LRSELAAWSR)”, for which the “effect on insulin resistance / glucose metabolizing enzyme” value in data set [2] is listed as “improve insulin resistance by significantly increasing activity of glucose metabolizing enzyme”.

Source of the values: paper PMC11973072, “Computational screening for novel α-glucosidase inhibitory peptides from Chlamys nobilis adductor muscle as a potential antidiabetic agent” (Frontiers in Nutrition, 2025).
